# Laboratory results from PubChem BioAssay (NCI).
#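 GI50: concentration for 50% inhibition of growth. At the TGI there is no net growth.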
# Legend:
# Assay in all cases: NCI tumour cell line growth inhibition, 384-well format
# SW-620 colon = test system: SW-620 colon
# SNB-19 CNS = test system: SNB-19 CNS
# NCI-H522 lung = test system: NCI-H522 lung
# IGROV1 ovarian = test system: IGROV1 ovarian
# ACHN renal = test system: ACHN renal
# DU-145 prostate = test system: DU-145 prostate
# 786-0 renal = test system: 786-0 renal
# KM12 colon = test system: KM12 colon
# HL-60(TB) leukemia = test system: HL-60(TB) leukemia
# MOLT-4 leukemia = test system: MOLT-4 leukemia
# SR leukemia = test system: SR leukemia
# NCI-H322M lung = test system: NCI-H322M lung
# UO-31 renal = test system: UO-31 renal
# NCI-H23 lung = test system: NCI-H23 lung
# MDA-MB-231 breast = test system: MDA-MB-231 breast
# NCI-H460 NSCLC = test system: NCI-H460 NSCLC
# OVCAR-4 ovarian = test system: OVCAR-4 ovarian
# SF-539 CNS = test system: SF-539 CNS
# UACC-62 melanoma = test system: UACC-62 melanoma
# HS 578T breast = test system: HS 578T breast
# SN12C renal = test system: SN12C renal
# OVCAR-3 ovarian = test system: OVCAR-3 ovarian
# PC-3 prostate = test system: PC-3 prostate
# SF-268 CNS = test system: SF-268 CNS
# CAKI-1 renal = test system: CAKI-1 renal
# U251 glioblastoma = test system: U251 glioblastoma
# MALME-3M melanoma = test system: MALME-3M melanoma
# SNB-75 CNS = test system: SNB-75 CNS
# SK-MEL-28 melanoma = test system: SK-MEL-28 melanoma
# A498 renal = test system: A498 renal
# OVCAR-5 ovarian = test system: OVCAR-5 ovarian
# HOP-92 NSCLC = test system: HOP-92 NSCLC
# SK-OV-3 ovarian = test system: SK-OV-3 ovarian
# M14 melanoma = test system: M14 melanoma
# HT29 colon = test system: HT29 colon
# TK-10 renal = test system: TK-10 renal
# BT-549 breast = test system: BT-549 breast
# A549 NSCLC = test system: A549 NSCLC
# MDA-MB-435 melanoma = test system: MDA-MB-435 melanoma
# K-562 leukemia = test system: K-562 leukemia
# MDA-MB-468 breast = test system: MDA-MB-468 breast
# HCT-116 colon = test system: HCT-116 colon
# SK-MEL-2 melanoma = test system: SK-MEL-2 melanoma
smiles,measurement,setting,value
C=CC(=O)Nc1cc2c(Nc3ccc(OCc4ccccn4)c(Cl)c3)ncnc2cc1OCCN1CCOCC1,GI50,SW-620 colon,1730 nM
same,TGI,SW-620 colon,3.16 µM
same,GI50,SNB-19 CNS,5.38 µM
same,TGI,SNB-19 CNS,18.3 µM
same,GI50,NCI-H522 lung,131 nM
same,TGI,NCI-H522 lung,1430 nM
same,GI50,IGROV1 ovarian,27 nM
same,TGI,IGROV1 ovarian,1080 nM
same,GI50,ACHN renal,98 nM
same,TGI,ACHN renal,1690 nM
same,GI50,DU-145 prostate,499 nM
same,TGI,DU-145 prostate,2120 nM
same,GI50,786-0 renal,1350 nM
same,TGI,786-0 renal,2670 nM
same,GI50,KM12 colon,1750 nM
same,TGI,KM12 colon,3.23 µM
same,GI50,HL-60(TB) leukemia,1530 nM
same,TGI,HL-60(TB) leukemia,2900 nM
same,GI50,MOLT-4 leukemia,1580 nM
same,TGI,MOLT-4 leukemia,2960 nM
same,GI50,SR leukemia,1520 nM
same,TGI,SR leukemia,2890 nM
same,GI50,NCI-H322M lung,18.3 nM
same,TGI,NCI-H322M lung,1140 nM
same,GI50,UO-31 renal,1080 nM
same,TGI,UO-31 renal,2330 nM
same,GI50,NCI-H23 lung,1690 nM
same,TGI,NCI-H23 lung,4.25 µM
same,GI50,MDA-MB-231 breast,1280 nM
same,TGI,MDA-MB-231 breast,2910 nM
same,GI50,NCI-H460 NSCLC,1530 nM
same,TGI,NCI-H460 NSCLC,3.16 µM
same,GI50,OVCAR-4 ovarian,1130 nM
same,TGI,OVCAR-4 ovarian,2500 nM
same,GI50,SF-539 CNS,1250 nM
same,TGI,SF-539 CNS,2510 nM
same,GI50,UACC-62 melanoma,1380 nM
same,TGI,UACC-62 melanoma,2680 nM
same,GI50,HS 578T breast,364 nM
same,TGI,HS 578T breast,2080 nM
same,GI50,SN12C renal,1100 nM
same,TGI,SN12C renal,2730 nM
same,GI50,OVCAR-3 ovarian,282 nM
same,TGI,OVCAR-3 ovarian,1880 nM
same,GI50,PC-3 prostate,1650 nM
same,TGI,PC-3 prostate,3.11 µM
same,GI50,SF-268 CNS,1420 nM
same,TGI,SF-268 CNS,2810 nM
same,GI50,CAKI-1 renal,1180 nM
same,TGI,CAKI-1 renal,2420 nM
same,GI50,U251 glioblastoma,1520 nM
same,TGI,U251 glioblastoma,2930 nM
same,GI50,MALME-3M melanoma,1700 nM
same,TGI,MALME-3M melanoma,3.09 µM
same,GI50,SNB-75 CNS,1390 nM
same,TGI,SNB-75 CNS,2920 nM
same,GI50,SK-MEL-28 melanoma,1550 nM
same,TGI,SK-MEL-28 melanoma,2910 nM
same,GI50,A498 renal,744 nM
same,TGI,A498 renal,2200 nM
same,GI50,OVCAR-5 ovarian,3.49 µM
same,TGI,OVCAR-5 ovarian,> 100 µM
same,GI50,HOP-92 NSCLC,1370 nM
same,TGI,HOP-92 NSCLC,2780 nM
same,GI50,SK-OV-3 ovarian,53.7 nM
same,TGI,SK-OV-3 ovarian,2350 nM
same,GI50,M14 melanoma,1650 nM
same,TGI,M14 melanoma,3.02 µM
same,GI50,HT29 colon,1590 nM
same,TGI,HT29 colon,2990 nM
same,GI50,TK-10 renal,30.5 nM
same,TGI,TK-10 renal,1540 nM
same,GI50,BT-549 breast,1160 nM
same,TGI,BT-549 breast,2380 nM
same,GI50,A549 NSCLC,3.11 µM
same,GI50,MDA-MB-435 melanoma,1540 nM
same,TGI,MDA-MB-435 melanoma,2960 nM
same,GI50,K-562 leukemia,1490 nM
same,TGI,K-562 leukemia,2950 nM
same,TGI,MDA-MB-468 breast,40.5 nM
same,GI50,HCT-116 colon,1480 nM
same,TGI,HCT-116 colon,2920 nM
same,GI50,SK-MEL-2 melanoma,1300 nM
same,TGI,SK-MEL-2 melanoma,2580 nM
